Biological target: T1, noradrenaline (NA) reuptake sites (Rattus norvegicus, UniProt Q63380)
T1 construct: Frontal cortical tissue from the brains of male Charles River rats; from tissue; host or cells: rat frontal cortical membranes
Assay: NA uptake: displacement of [3H]nisoxetine from noradrenaline reuptake sites, rat frontal cortical membranes
Assay type: binding
Conditions: [3H]nisoxetine 0.6 nM, rat frontal cortical membranes; fit to data from three experiments
Experimental: Frontal cortical tissue from the brains of male Charles River rats weighing 150-250 g was homogenised in ice-cold 50 mM Tris-HCl, pH 7.4 (at 25° C.) containing 120 mM sodium chloride and 5 mM potassium chloride (Tris buffer; 1:60 w/v) using a Kinematic polytron (speed setting 6 for 10 seconds) and centrifuged at 40,000 g for 10 minutes. The supernatant was discarded and the pellet rehomogenised in Tris buffer, 1:60 w/v, and centrifuged at 40,000 g for 10 minutes. This step was repeated twice more so that, in total, the brain tissue was homogenised and centrifuged four times. The final pellet was resuspended in 50 mM Tris-HCl, pH 7.4 containing 300 mM sodium chloride and 5 mM potassium chloride (equivalent to 18.75 mg wet weight of tissue/ml) and used immediately in the binding assay. All centrifugations were performed at 4° C.
Membranes (400 μl; equivalent to 7.5 mg wet weight of tissue/tube) were incubated with 50 μl [^3H]nisoxetine at a single concentration of 0.6 nM and 50 μl of distilled water (total binding) or 50 μl^− of test compound (at a single concentration 10^−6M or at 10 concentrations ranging from 10^−11-10^−3 M) or 50 μl of mazindol (1 μM; non-specific binding) for 4 h at 4° C. Membrane bound radioactivity was recovered by filtration under vacuum through Skatron 11734 filters using a Skatron cell harvester. Filters were rapidly washed with ice-cold 50 mM Tris-HCl, pH 7.4 containing 120 mM sodium chloride and 5 mM potassium chloride (wash setting 9,9,0). The scored filter paper discs were punched out into vials, scintillation fluid added and radioactivity determined by liquid scintillation counting.
For each of these tests measuring the ability of compounds of Formula I to displace standard ligands from 5-HT1A receptors and 5-hydroxytryptamine (5-HT) and noradrenaline (NA) reuptake sites and muscarinic receptors in vitro, the percentage displacement of specific binding of tritiated ligand by 10^−6 M test compound was calculated in the following way.
Firstly, specific binding of tritiated ligand in the absence (A) and presence (B) of test compound was determined:
In the absence of compound: A(dpm)=Total binding (dpm)−Non-specific binding (dpm) In the presence of compound (10^−6 M): B(dpm)=Binding at 10^−6M (dpm)−Non-specific binding (dpm)
The specific binding of tritiated ligand in the presence (B) of compound was then converted to a percentage of specific binding of tritiated ligand in the absence (A) of compound: % Specific binding at 10^−6 M=B(dpm)/A(dpm)×100
The percentage displacement of specific binding of tritiated ligand by the test compound (10^−6 M) was then obtained by subtraction of the percentage specific binding in the presence of compound from the percentage specific binding in the absence of compound, which is taken as the maximum binding and so equals 100%:
% Displacement at 10^−6 M=100−% Specific binding at 10^−6 M.
In some cases, displacement curves were then produced for compounds which displaced ≧50% of specific binding of the tritiated ligand at 10^−6 M using a range of concentrations of the compound. The Ki was then calculated by simultaneous fitting using equations derived from the Feldman equations by robust non-linear regression to data from three experiments simultaneously (De Lean et al., 1978; Munson and Rodbard, 1980; Feldman, 1992). Munson P J and Rodbard D. Ligand: a versatile computerised approach for characterisation of ligand binding systems. Anal Biochem 1980; 107: 220. Feldman HA. Mathematical theory of complex ligand binding systems at equilibrium: some methods for parameter fitting. Anal Biochem 1992: 48, 317. De Lean A, Munson P J and Rodbard D. Simultaneous analysis of families of sigmoidal curves: application to bioassay, radioligand assay, and physiological dose-response curves. Am J Physiol 1978: 235 (2), E97-E102. […]

T1 sequence (Q63380 1-617): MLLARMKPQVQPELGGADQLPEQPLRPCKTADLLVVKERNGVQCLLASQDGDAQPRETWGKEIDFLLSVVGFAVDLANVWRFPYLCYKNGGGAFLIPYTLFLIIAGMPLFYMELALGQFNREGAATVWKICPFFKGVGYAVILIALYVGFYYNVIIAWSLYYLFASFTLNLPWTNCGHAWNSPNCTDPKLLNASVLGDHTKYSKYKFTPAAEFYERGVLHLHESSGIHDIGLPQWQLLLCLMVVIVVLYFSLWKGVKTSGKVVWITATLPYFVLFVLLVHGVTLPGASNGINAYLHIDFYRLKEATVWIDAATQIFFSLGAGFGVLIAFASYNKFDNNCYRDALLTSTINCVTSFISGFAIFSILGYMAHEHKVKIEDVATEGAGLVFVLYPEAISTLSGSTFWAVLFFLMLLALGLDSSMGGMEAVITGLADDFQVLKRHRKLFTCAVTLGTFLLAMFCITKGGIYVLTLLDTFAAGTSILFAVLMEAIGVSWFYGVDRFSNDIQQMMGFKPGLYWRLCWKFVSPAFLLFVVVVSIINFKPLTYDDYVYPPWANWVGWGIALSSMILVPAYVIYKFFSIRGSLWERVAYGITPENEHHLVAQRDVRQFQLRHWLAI

Row | SMILES | Ki [nM]
1 | CC(C)C1=C(c2cccc3sccc23)N2CCN=C2S1.O=C(O)/C=C/C(=O)O [Example 35, 3-(benzo[b]thiophen-4-yl)-2-(1-methylethyl)-5,6-dihydroimidazo[2,1-b]thiazole fumarate] | 5.5
2 | OCC1=C(c2ccc3sccc3c2)N2CCN=C2S1 [Example 28, [3-(benzo[b]thiophen-5-yl)-5,6-dihydroimidazo[2,1-b]-thiazol-2-yl]methanol] | 5.4
3 | Br.CCC1=C(c2cc3c(Cl)cccc3s2)N2CCN=C2S1 [Example 18, 3-(4-chlorobenzo[b]thiophen-2-yl)-2-ethyl-5,6-dihydroimidazo[2,1-b]thiazole hydrobromide] | 29.5

Next, values leading:

Row | Ki [nM] | SMILES
4 | 6.1 | Br.CC1=C(c2cccc3sccc23)N2CCN=C2S1 [Example 8, 3-(benzo[b]thiophen-4-yl)-2-methyl-5,6-dihydroimidazo[2,1-b]thiazole hydrobromide]
5 | 5.3 | CSC1=C(c2cc3ccccc3s2)N2CCN=C2S1 [Example 19, 3-(benzo[b]thiophen-2-yl)-2-(methylthio)-5,6-dihydroimidazo[2,1-b]thiazole]

Same assay, conditions: read-out: NA uptake % displacement at 10^−6 M

Row | SMILES | inhibition at 1 µM [%]
6 | Br.CC1=C(c2cc3c(C)cccc3s2)N2CCN=C2S1 [Example 16, 2-methyl-3-(4-methylbenzo[b]thiophen-2-yl)-5,6-dihydroimidazo[2,1-b]thiazole hydrobromide] | 83

Source: patent US6900216B2, “Dihydroimidazo[2,1-b]thiazole and dihydro-5h-thiazolo[3,2-A]pyrimidines as antidepressant agents” (Knoll GmbH, priority 2000, dated 2005)
